{"source": "ChEMBL document CHEMBL1201862", "about": "“PubChem BioAssay data set” (2004)", "key": {"[1]": {"target": "T1, RNA-binding protein pos-1 (Caenorhabditis elegans, UniProt G5EF15)", "T1 sequence (G5EF15 whole entry)": "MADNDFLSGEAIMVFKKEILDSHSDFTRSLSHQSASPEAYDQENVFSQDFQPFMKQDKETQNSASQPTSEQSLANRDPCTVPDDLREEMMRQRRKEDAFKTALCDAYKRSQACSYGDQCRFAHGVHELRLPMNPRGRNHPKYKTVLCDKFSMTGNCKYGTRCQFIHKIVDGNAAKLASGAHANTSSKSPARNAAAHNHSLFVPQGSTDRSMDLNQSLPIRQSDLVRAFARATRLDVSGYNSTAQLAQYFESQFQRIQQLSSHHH", "experiment": "disruptors of C. elegans POS-1 RNA interaction – biochemical, fluorescence polarization, dose response (AID 1964);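 further: purified POS-1 fused to maltose binding protein made in E. coli; potency of compounds blocking POS-1 binding to fluorescent RNA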"}, "[2]": {"target": "T2, Zinc finger protein mex-5 (Caenorhabditis elegans, UniProt Q9XUB2)", "T2 sequence (Q9XUB2 whole entry)": "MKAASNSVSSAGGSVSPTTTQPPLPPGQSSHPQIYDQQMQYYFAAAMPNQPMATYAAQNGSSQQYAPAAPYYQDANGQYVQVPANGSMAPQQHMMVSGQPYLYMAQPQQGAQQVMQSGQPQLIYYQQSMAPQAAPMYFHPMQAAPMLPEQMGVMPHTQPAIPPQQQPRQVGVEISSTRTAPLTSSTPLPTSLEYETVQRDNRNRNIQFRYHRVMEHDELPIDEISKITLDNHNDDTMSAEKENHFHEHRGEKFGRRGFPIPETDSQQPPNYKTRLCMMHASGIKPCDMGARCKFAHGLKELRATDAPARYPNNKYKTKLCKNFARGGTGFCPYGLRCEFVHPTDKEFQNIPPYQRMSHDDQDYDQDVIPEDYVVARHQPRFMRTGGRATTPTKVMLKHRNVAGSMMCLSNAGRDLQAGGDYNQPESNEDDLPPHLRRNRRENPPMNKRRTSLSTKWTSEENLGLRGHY", "experiment": "potency of MEX-5 RNA-binding blockers – biochemical, C. elegans, fluorescence polarization, dose response (AID 1960)"}, "DNA topoisomerase": {"target": "DNA topoisomerase (Yersinia pestis, UniProt A0A2S9PM60)", "sequence (A0A2S9PM60 whole entry)": "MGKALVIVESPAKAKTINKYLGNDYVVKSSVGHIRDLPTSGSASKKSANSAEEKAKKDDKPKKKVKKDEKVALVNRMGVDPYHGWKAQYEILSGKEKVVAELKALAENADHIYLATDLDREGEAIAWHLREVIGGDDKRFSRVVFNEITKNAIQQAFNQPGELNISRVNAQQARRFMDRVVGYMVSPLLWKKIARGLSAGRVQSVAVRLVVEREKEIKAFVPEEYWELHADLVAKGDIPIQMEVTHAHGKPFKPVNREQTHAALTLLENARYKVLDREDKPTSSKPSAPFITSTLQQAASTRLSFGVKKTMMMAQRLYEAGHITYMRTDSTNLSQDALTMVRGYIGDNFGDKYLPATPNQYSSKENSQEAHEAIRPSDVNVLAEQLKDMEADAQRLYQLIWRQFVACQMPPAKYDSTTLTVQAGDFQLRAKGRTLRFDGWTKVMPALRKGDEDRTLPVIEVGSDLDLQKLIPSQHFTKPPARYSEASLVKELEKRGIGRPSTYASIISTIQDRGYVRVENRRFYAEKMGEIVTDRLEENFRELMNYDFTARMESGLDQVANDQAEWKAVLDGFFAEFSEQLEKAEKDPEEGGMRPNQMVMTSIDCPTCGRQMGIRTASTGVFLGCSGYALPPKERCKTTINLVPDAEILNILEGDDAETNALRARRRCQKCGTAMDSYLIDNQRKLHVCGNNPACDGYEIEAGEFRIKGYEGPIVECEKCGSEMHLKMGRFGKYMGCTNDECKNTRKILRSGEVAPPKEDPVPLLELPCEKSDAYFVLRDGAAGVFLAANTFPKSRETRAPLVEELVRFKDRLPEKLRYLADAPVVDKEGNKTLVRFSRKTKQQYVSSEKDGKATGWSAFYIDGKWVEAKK", "experiment": "Yersinia topoisomerase I cleavage product accumulation – biochemical, cherry-pick, dose response (AID 588525)"}, "Genome polyprotein": {"target": "Genome polyprotein (dengue virus type 2, UniProt P29990)", "sequence (P29990 2492-3391 limits assumed)": "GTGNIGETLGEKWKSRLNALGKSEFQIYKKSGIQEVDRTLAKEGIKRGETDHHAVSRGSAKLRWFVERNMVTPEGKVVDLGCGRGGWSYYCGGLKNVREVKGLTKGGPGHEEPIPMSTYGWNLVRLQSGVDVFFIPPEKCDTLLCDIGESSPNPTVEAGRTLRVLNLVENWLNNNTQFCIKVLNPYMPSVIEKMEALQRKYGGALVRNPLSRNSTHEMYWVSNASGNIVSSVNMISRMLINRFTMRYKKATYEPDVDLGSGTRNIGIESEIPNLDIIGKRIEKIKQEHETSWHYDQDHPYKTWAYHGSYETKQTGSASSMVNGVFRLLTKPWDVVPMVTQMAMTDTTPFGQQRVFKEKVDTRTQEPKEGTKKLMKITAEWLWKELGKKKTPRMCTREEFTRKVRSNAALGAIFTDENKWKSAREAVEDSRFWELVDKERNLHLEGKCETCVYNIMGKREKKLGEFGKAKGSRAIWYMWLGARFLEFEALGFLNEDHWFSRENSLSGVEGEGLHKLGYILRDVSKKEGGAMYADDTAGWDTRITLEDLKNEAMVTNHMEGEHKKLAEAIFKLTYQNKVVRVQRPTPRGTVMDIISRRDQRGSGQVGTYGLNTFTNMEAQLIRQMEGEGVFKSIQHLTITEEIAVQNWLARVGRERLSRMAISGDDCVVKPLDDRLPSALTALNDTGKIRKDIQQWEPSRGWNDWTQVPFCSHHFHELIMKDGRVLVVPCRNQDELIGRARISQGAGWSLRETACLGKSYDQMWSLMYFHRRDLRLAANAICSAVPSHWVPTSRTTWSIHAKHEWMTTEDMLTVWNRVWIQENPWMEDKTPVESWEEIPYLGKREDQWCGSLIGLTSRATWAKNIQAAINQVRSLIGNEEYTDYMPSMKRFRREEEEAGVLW", "experiment": "flavivirus cap methylation enzyme inhibition – biochemical, confirmation dose response, primary screen (AID 588689)", "type": "functional"}, "Phospholipase A2": {"target": "Phospholipase A2 (Homo sapiens, UniProt P04054)", "sequence (P04054 whole entry)": "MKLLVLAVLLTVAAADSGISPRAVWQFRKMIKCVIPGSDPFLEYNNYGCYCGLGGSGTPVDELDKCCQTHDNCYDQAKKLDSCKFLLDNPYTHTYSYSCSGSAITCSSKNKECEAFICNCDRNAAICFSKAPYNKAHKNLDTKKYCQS", "type": "functional"}, "Cysteine protease ATG4B": {"target": "Cysteine protease ATG4B (Homo sapiens, UniProt Q9Y4P1)", "sequence (Q9Y4P1 whole entry)": "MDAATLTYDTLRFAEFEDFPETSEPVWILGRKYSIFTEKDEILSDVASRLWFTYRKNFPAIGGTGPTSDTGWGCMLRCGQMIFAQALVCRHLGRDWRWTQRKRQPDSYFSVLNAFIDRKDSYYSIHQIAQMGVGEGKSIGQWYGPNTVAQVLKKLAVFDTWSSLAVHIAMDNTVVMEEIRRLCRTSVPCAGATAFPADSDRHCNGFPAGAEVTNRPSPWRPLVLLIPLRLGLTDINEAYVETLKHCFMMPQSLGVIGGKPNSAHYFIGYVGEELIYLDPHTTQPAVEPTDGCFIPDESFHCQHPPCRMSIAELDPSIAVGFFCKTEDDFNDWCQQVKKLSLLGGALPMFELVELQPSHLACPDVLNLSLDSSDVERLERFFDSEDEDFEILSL", "type": "functional"}, "HEK293 [3]": {"tested_on": "HEK293", "experiment": "SAR Analysis of small molecule inhibitors of T-cell specific antigen receptor-induced NF-kB activation in a HEK-293T cell line using a luminescence assay. [Related pubchem assays (depositor defined):AID435003, AID435012, AID489026]", "type": "functional, cell-based", "details": "Homo sapiens"}, "[4]": {"experiment": "non-specific 3'UTR reporter inhibition in Clone20-Shn3RL – cell-based, Renilla luciferase, cherry-picked, counter-screen for Shn3 inhibitor project, dose response (AID 624133)", "type": "functional"}, "[5]": {"target": "Serine/threonine-protein phosphatase (Candida dubliniensis (strain CD36 / CBS 7987 / NCPF 3949 / NRRLY-17841) (Yeast), UniProt B9W6M3)", "sequence (B9W6M3 whole entry)": "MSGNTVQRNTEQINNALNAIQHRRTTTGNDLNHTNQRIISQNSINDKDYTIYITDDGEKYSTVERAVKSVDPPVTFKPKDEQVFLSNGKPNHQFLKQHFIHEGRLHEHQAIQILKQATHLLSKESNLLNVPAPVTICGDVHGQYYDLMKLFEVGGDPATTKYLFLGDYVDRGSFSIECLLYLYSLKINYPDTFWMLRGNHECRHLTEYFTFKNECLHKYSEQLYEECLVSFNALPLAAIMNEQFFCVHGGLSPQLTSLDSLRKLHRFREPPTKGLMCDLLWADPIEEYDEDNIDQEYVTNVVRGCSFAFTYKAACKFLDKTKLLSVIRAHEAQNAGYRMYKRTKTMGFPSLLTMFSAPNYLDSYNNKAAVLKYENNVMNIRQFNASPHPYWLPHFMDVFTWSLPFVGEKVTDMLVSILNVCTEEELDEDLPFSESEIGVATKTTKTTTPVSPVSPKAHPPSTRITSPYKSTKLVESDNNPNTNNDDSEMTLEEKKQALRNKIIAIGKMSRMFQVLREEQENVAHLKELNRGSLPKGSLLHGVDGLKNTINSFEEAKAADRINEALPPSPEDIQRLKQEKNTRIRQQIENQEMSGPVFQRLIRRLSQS", "experiment": "blockers of CaCl2-induced CDRE-lacZ signaling – S. cerevisiae, luminescence, secondary, dose response (AID 2388);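 further: yeast reporter cells carrying a calcineurin-responsive lacZ construct stimulated with calcium chloride; luminescent beta-galactosidase reporter signal in whole cells rather than isolated phosphatase activity; potency for inhibition where a drop in reporter signal means calcineurin blockade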", "type": "functional, cell-based"}, "HEK293 [6]": {"tested_on": "HEK293", "experiment": "SAR Analysis of small molecule inhibitors of T-cell specific antigen receptor-induced NF-kB activation in a HEK-293T cell line using a luminescence assay - Set 2. [Related pubchem assays (depositor defined):AID435003, AID435012, AID489026]", "type": "functional, cell-based", "details": "Homo sapiens"}, "[7]": {"target": "ATP-dependent molecular chaperone HSP82 (Candida albicans (strain WO-1) (Yeast), UniProt C4YTQ8)", "sequence (C4YTQ8 whole entry)": "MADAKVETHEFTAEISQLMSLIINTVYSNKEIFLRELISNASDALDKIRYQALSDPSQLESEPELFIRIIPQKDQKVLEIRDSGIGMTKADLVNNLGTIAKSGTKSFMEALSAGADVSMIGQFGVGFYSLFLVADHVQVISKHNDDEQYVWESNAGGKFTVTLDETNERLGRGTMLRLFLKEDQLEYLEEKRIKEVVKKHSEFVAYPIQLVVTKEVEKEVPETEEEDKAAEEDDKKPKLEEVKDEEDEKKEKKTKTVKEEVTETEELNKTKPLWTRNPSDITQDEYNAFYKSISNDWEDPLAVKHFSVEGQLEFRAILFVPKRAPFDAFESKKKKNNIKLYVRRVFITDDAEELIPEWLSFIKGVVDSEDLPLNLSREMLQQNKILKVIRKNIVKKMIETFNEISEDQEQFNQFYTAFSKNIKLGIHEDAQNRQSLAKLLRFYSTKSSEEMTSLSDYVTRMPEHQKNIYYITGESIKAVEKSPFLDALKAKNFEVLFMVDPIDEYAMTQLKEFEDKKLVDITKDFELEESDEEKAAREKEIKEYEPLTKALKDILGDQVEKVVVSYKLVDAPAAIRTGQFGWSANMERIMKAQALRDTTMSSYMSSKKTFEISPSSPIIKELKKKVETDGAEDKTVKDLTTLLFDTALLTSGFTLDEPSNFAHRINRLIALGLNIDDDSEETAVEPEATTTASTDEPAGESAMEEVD", "experiment": "steroid-induced GRE reporter decrease in yeast – S. cerevisiae, luminescence, Hsp90 inhibitor project, dose response (AID 2400);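 further: beta-galactosidase luminescence from glucocorticoid response element reporter as proxy for Hsp90 function; inhibitor potency where signal loss means Hsp90 inhibition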", "type": "functional, cell-based"}, "[8]": {"experiment": "MIN6 cell viability loss – mouse insulinoma, cytotoxicity control, dose response (AID 2122);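 further: confirmatory high-throughput counterscreen run to flag cytotoxic compounds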", "type": "functional"}, "Jurkat [9]": {"tested_on": "Jurkat", "experiment": "SAR Analysis of small molecule inhibitors of T-cell specific antigen receptor-induced NF-kB activation in a Jurkat cell line using a luminescence assay. [Related pubchem assays (depositor defined):AID435003, AID435012, AID465]", "type": "functional, cell-based", "details": "Homo sapiens"}, "[10]": {"experiment": "NIH-3T3 fibroblast cytotoxicity, dose response, cytotoxicity control, cell-based, fluorescence, Alamar Blue, secondary assay (AID 2327);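 further: NIH-3T3 mouse fibroblasts cultured with fluconazole at 8 µg/mL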", "type": "functional"}, "Jurkat [11]": {"tested_on": "Jurkat", "experiment": "SAR Analysis of small molecule inhibitors of T-cell specific antigen receptor-induced NF-kB activation in a Jurkat cell line using a luminescence assay - Set 2. [Related pubchem assays (depositor defined):AID435003, AID435012, AID465]", "type": "functional, cell-based", "details": "Homo sapiens"}, "cells [12]": {"experiment": "cells", "type": "functional, cell-based"}, "[13]": {"experiment": "decrease of insulin promoter-GFP reporter – imaging, high-content screening, mouse beta cells (AID 1628)", "type": "functional", "details": "MIN6"}, "[14]": {"target": "Heat shock protein HSP 90-alpha (Homo sapiens, UniProt P07900)", "type": "functional, organism-based"}, "INS1": {"tested_on": "INS1", "experiment": "INS-1E survival protection against cytokine death – cell-based, luminescence, retest, dose response (AID 449756);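 further: cell death triggered by IL-1 beta plus TNF-alpha plus IFN-gamma mixture; protective hits raise ATP signal compared with cytokine alone wells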", "type": "functional", "details": "Rattus norvegicus"}, "[15]": {"experiment": "loss of viability in HepG2 cells – cell-based, CellTiter-Glo, cherry-picked, cytotoxicity control for Shn3 inhibitor project, dose response (AID 624134)", "type": "functional"}, "[16]": {"experiment": "fluconazole-exposed Candida albicans growth modulators – fluorescence, retest, confirmation (AID 2467)", "type": "functional, cell-based"}, "[17]": {"experiment": "Trypanosoma cruzi growth suppression in host cells – NIH3T3 host cells, beta-gal luminescence, confirmation (AID 2044);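 further: intracellular parasites grown in NIH/3T3 mouse fibroblasts as host cells; luminescent beta-galactosidase reporter signal from transgenic T. cruzi replicating inside host cells; inhibitors lower the luminescence signal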", "type": "functional, cell-based"}, "Exodeoxyribonuclease V": {"target": "Exodeoxyribonuclease V (Escherichia coli (strain K12), UniProt P04993+P07648+P08394)", "experiment": "RecBCD inhibition via phage-restricted bacterial growth – absorbance, V66 E. coli, mutant T4 phage, counter-screen for AddAB inhibitor project, dose response (AID 492957)", "type": "functional, cell-based, Escherichia coli str. K-12 substr. MG1655"}, "[18]": {"experiment": "reduction of Shn3 3'UTR-driven luciferase in osteoblasts – cell-based, Clone20 osteoblasts, firefly luciferase, cherry-picked, dose response (AID 624132)", "type": "functional"}, "[19]": {"experiment": "Counterscreen for AddAB inhibitors: absorbance-based bacterial cell-based high throughput dose response assay for inhibitors of bacterial viability. [Related pubchem assays (depositor defined):AID435030, AID449728, AID449731, AID488942, AID488955, AID488956]", "type": "functional"}, "[20]": {"experiment": "HEK-293T viability loss after treatment – luminescence, T-cell screen hits, cytotoxicity control for TCR NF-kB inhibitor project, dose response (AID 489026);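 further: cells exposed to compound about 14 hours before the viability readout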", "type": "functional, cell-based"}, "cells [21]": {"experiment": "cells", "type": "functional, cell-based", "remark": "listed apart in the source"}, "[22]": {"experiment": "NIH3T3 cell viability loss – ATP luminescence, mouse fibroblasts, counter-screen, dose response (AID 2010);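 further: cells exposed to compound for about 90 hours before reading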", "type": "functional, cell-based"}}, "note": "Calls of active or inactive are those of the source.", "data": [{"smiles": "C=CCOc1cccc(C2C(C(=O)c3cc4ccccc4o3)=C(O)C(=O)N2c2cc(C)on2)c1", "note": "(stereo not drawn)", "values": [{"measurement": "EC50", "setting": "[1]", "value": "> 300 µM (not active)"}, {"measurement": "EC50", "setting": "[2]", "value": "80.5 µM (active)"}, {"measurement": "AC50", "setting": "DNA topoisomerase", "value": "7.35 µM (active)"}, {"measurement": "IC50", "setting": "Genome polyprotein", "value": "48.6 µM (active)"}]}, {"smiles": "CCCCCCCCCCCCCCCCCCNc1ccn(C2OC(COP(=O)(O)OCC3OC(n4cc(F)c(=O)[nH]c4=O)CC3O)C(O)C2O)c(=O)n1", "note": "(stereo not drawn)", "values": [{"measurement": "IC50", "setting": "Phospholipase A2", "value": "9.09 µM (active)"}, {"measurement": "IC50", "setting": "Cysteine protease ATG4B", "value": "10.8 µM (active)"}]}, {"smiles": "CCCC(=O)NC(c1ccc(OC)cc1)c1ccc2cccnc2c1O", "note": "(stereo not drawn)", "values": [{"measurement": "IC50", "setting": "HEK293 [3]", "value": "4.92 µM (active)"}, {"measurement": "AC50", "setting": "[4]", "value": "1.08 µM (active)"}, {"measurement": "EC50", "setting": "[5]", "value": "> 180 µM (inactive)"}, {"measurement": "IC50", "setting": "HEK293 [6]", "value": "3.64 µM (active)"}, {"measurement": "EC50", "setting": "[7]", "value": "> 160 µM (inactive)"}, {"measurement": "IC50", "setting": "[8]", "value": "1.52 µM (active)"}, {"measurement": "IC50", "setting": "Jurkat [9]", "value": "2.96 µM (active)"}, {"measurement": "EC50", "setting": "[10]", "value": "41.4 µM (active)"}, {"measurement": "IC50", "setting": "Jurkat [11]", "value": "3.11 µM (active)"}, {"measurement": "EC50", "setting": "cells [12]", "value": "6.31 µM (active)"}, {"measurement": "IC50", "setting": "[13]", "value": "1.23 µM (active)"}, {"measurement": "AC50", "setting": "[14]", "value": "4.08 µM (active)"}, {"measurement": "AC50", "setting": "INS1", "value": "0.696 µM (active)"}, {"measurement": "AC50", "setting": "[15]", "value": "2.33 µM (active)"}, {"measurement": "EC50", "setting": "[16]", "value": "0.349 µM (active)"}, {"measurement": "EC50", "setting": "[17]", "value": "0.527 µM (active)"}, {"measurement": "IC50", "setting": "Exodeoxyribonuclease V", "value": "> 119 µM (inactive)"}, {"measurement": "AC50", "setting": "[18]", "value": "1.18 µM (active)"}, {"measurement": "IC50", "setting": "[19]", "value": "> 119 µM (inactive)"}, {"measurement": "IC50", "setting": "[20]", "value": "> 80 µM (inactive)"}, {"measurement": "EC50", "setting": "cells [21]", "value": "> 350 µM (not active)"}, {"measurement": "EC50", "setting": "[22]", "value": "1.4 µM (active)"}]}]}
